Columns and labels:
blood pressure = test: Tests for action on the cardiovascular system: hypotensive activity (activity in method 1, rats or cats, or method 2), reported in words; format: in vivo, rat, cat; conditions: standard test procedure, result in words
Method: Tests for action on the cardiovascular system were conducted according to one of the following procedures:
Cats were anaesthetised with pentobarbitone sodium (30 mg/kg) and the cephalic vein, femoral and carotid arteries and trachea were cannulated. The carotid cannula was introduced into the left ventricle and the femoral cannula into the aorta. Blood pressure and heart rate were recorded from the aortic cannula and left ventricular pressure from the carotid cannula. The test compunds were administered intravenously (0.1-25.6 mg/kg).
Method 2 (hypertensive rats)
Male or female rats are rendered hypertensive by applying a figure of 8 ligature around one kidney and contralateral nephrectomy. Blood pressure stabilises at a hypertensive level after 6 weeks. Systolic pressure is measured indirectly using a Decker Caudal Plethysmograph A control group of rats is run with each group treated with drug. Each group usually consists of six rats. Drugs are usually administered by the IP or oral routes. Pressures are read prior to drug administration and at two and 24 hours thereafter.

[1] = system: blood pressure and heart rate; test: Method 1 (rat): hypotensive activity in anaesthetised rats, i.v.; conditions: Rattus norvegicus, iv, 0.25 h, read-out: Hypotensive Activity
Method: Rats were anaesthetised with pentobarbitone sodium (60 mg/kg) and the jugular vein, trachea and carotid artery were cannulated. […] A decrease in heart rate of more than 30% from control values was considered to be significant bradycardia.

α-adrenoceptor = test: α-Adrenoceptor antagonism on the guinea pig aortic strip; conditions: Table 4
Text: Carried out on the guinea pig aortic strip [Furchgott and Bhadrakom (1953) J. Pharmac. exp. Ther. 108, 129-143] by the method of Alps et al [Br. J. Pharmac. 1972 44, 52-62].

Q: How did the hypotensive activity (blood pressure) turn out when `O=C(NC1CCN(CCCOc2cccc3ccccc23)CC1)c1ccccc1` [Example 55, 1-[3-(1-Naphthyloxy)-propyl]-4-benzamidopiperidine] was run?
A: marked hypotensive activity

Q: What about the minimal effective dose [1] of the same compound?
A: 1.6 to 3.2 mg/kg

Q: Which results are given for `O=C(CN1CCC(NC(=O)c2ccccc2)CC1)c1ccc(O)c(O)c1` [Example 11, 1-[2-(3,4-Dihydroxyphenyl)-2-oxoethyl]-4-benzamidopiperidine]?
A: hypotensive activity (blood pressure): marked hypotensive activity; minimal effective dose [1]: 1.6 to 3.2 mg/kg

Q: Which results are given for `COc1ccccc1OCCN1CCC(NC(=O)c2ccccc2)CC1` [Example 68, 1-[2-(2-Methoxyphenoxy)ethyl]-4-benzamidopiperidine]?
A: hypotensive activity (blood pressure): hypotensive activity; minimal effective dose [1]: 6.4 to 12.8 mg/kg

Q: With `C[N+]1(CCCC(=O)c2ccccc2)CCC(NC(=O)c2ccccc2)CC1` (stereo not shown) [Example 82, 4-Benzamido-1-methyl-1-(4-phenyl-4-oxobutyl)piperidinium iodide] as the compound, how does the hypotensive activity (blood pressure) read?
A: hypotensive activity

Q: For `CC(C(=O)c1ccc(O)cc1)N1CCC(NC(=O)c2ccccc2)CC1` (stereo not shown) [Example 64, 1-[1-Methyl-2-(4-hydroxy)phenyl-2-oxoethyl]-4-benzamidopiperidine], which minimal effective dose [1] is on record?
A: < 30 mg/kg

Q: How did the hypotensive activity (blood pressure) turn out when `CC(C(O)c1ccc(O)cc1)N1CCC(NC(=O)c2ccccc2)CC1` (stereo not shown) [Example 65, 1-[1-Methyl-2-(4-hydroxy)phenyl-2-hydroxyethyl]-4-benzamidopiperidine] was run?
A: hypotensive activity

Q: And the minimal effective dose [1]?
A: 25.6 mg/kg

Q: `COc1ccc(CCN2CCC(NC(=O)c3ccccc3Cl)CC2)cc1OC` [Example 6, 1-[2-(3,4-Dimethoxyphenyl)ethyl]-4-(2-chlorobenzamido)-piperidine] was tested. Which hypotensive activity (blood pressure) did it give?
A: hypotensive activity

Q: And the minimal effective dose [1]?
A: 25.6 mg/kg

Q: Which hypotensive activity (blood pressure) does the source give for `CC(Cc1ccccc1)N1CCC(NC(=O)c2ccccc2)CC1` (stereo not shown) [Example 78, 4-Benzamido-1-(1-phenylprop-2-yl)piperidine] here?
A: marked hypotensive activity

Q: And the minimal effective dose [1]?
A: 6.4 to 12.8 mg/kg

Q: How did the hypotensive activity (blood pressure) turn out when `O=C(NC1CCN(CCc2ccc3ccccc3n2)CC1)c1ccccc1` [Example 95, 1-[2-(2-Quinolyl)ethyl]-4-benzamidopiperidine] was run?
A: marked hypotensive activity

Q: How did the hypotensive activity (blood pressure) turn out when `O=C(CN1CCC(NC(=O)c2ccccc2)CC1)c1ccc2c(c1)CCCC2` [Example 56, 1-[2-(1,2,3,4-Tetrahydro-6-napthyl)-2-oxoethyl]-4-benzamidopiperidine] was run?
A: hypotensive activity

Q: What about the minimal effective dose [1] of the same compound?
A: 6.4 to 12.8 mg/kg

Q: Which hypotensive activity (blood pressure) does the source give for `O=C(NC1=CCN(CCc2ccccc2)CC1)c1ccccc1` [Example 26, 1-Phenethyl-4-benzamido-1,2,5,6-tetrahydropyridine] here?
A: hypotensive activity

Q: What does the source list for `Cc1ccc(CCN2CCC(NC(=O)c3ccccc3)CC2)cc1C` [Example 41, 1-[2-(3,4-Dimethylphenyl)ethyl]-4-benzamidopiperidine]?
A: hypotensive activity (blood pressure): hypotensive activity; minimal effective dose [1]: 6.4 to 12.8 mg/kg

Q: Which hypotensive activity (blood pressure) does the source give for `Cc1cc(CN2CCC(NC(=O)c3ccccc3)CC2)c(C)n1-c1ccccc1` [Example 99, 1-(2,5-Dimethyl-1-phenylpyrrol-3-yl-methyl)-4-benzamidopiperidine] here?
A: hypotensive activity

Q: What about the minimal effective dose [1] of the same compound?
A: < 30 mg/kg

Q: Which hypotensive activity (blood pressure) does the source give for `O=C(CCCN1CCC(NC(=O)c2ccccc2)CC1)Nc1ccccc1` [Example 50, N-Phenyl-4-(p-benzamidopiperid-1-yl)butyramide] here?
A: hypotensive activity

Q: What about the minimal effective dose [1] of the same compound?
A: 6.4 to 12.8 mg/kg

Q: How did the hypotensive activity (blood pressure) turn out when `O=C(CCN1CCC(NC(=O)c2ccccc2)CC1)c1ccc2c(c1)OCCO2` [Example 91, 1-[3-(1,4-Benzodioxan-6-yl)-3-oxopropyl]-4-benzamidopiperidine] was run?
A: hypotensive activity

Q: And the minimal effective dose [1]?
A: 25.6 mg/kg

Q: For `Cl.O=C(NC1CCN(CCc2ccccc2)CC1)c1ccccc1` [Example 59, 1-Phenethyl-4-benzamidopiperidine hydrochloride], which hypotensive activity (blood pressure) is on record?
A: hypotensive activity

Q: With `O=C(NC1CCN(CC(O)c2ccc[nH]2)CC1)c1ccccc1` (stereo not shown) [Example 98, 1-[2-Hydroxy-2-(2-pyrrol-2-yl)ethyl]-4-benzamidopiperidine] as the compound, how does the hypotensive activity (blood pressure) read?
A: hypotensive activity

Q: Which hypotensive activity (blood pressure) does the source give for `O=C(NC1CCN(CCc2ccccc2[N+](=O)[O-])CC1)c1ccccc1` [Example 33, 1-[2-(o-Nitrophenyl)ethyl]-4-benzamido-piperidine] here?
A: hypotensive activity

Q: And the minimal effective dose [1]?
A: 6.4 to 12.8 mg/kg

Q: `O=C(NC1CCN(CCC=C(c2ccc(F)cc2)c2ccc(F)cc2)CC1)c1ccccc1` [Example 87, 4-(4-Benzamidopiperid-1-yl)-1,1-(di-p-fluorophenyl)but-l-ene] was tested. Which hypotensive activity (blood pressure) did it give?
A: hypotensive activity

Q: What about the minimal effective dose [1] of the same compound?
A: 25.6 mg/kg

Q: Which minimal effective dose [1] does the source give for `Cc1ccc(C(=O)NC2CCN(Cc3ccccc3)CC2)cc1` [Example 32, 1-Benzyl-4-(p-methylbenzamido)piperidine] here?
A: < 30 mg/kg

Q: With `O=C(NC1CCN(CCCC(c2ccccc2)c2ccccc2)CC1)c1ccccc1` [Example 90, 4-(4-Benzamidopiperid-1-yl)-1,1-diphenyl butane] as the compound, how does the hypotensive activity (blood pressure) read?
A: hypotensive activity

Q: And the minimal effective dose [1]?
A: 6.4 to 12.8 mg/kg

Q: Which minimal effective dose [1] does the source give for `COc1cc(CCN2CCC(NC(=O)c3ccccc3)CC2)cc(OC)c1OC` [Example 8, 1-[2-(3,4,5-Trimethoxyphenyl)ethyl]-4-benzamidopiperidine] here?
A: 6.4 to 12.8 mg/kg

Q: `COc1ccc(CCN2CCC(NC(=O)c3ccccc3)CC2)cc1` [Example 49, 4-Benzamido-1-[2-(p-methoxyphenyl)ethyl]piperidine] was tested. Which hypotensive activity (blood pressure) did it give?
A: hypotensive activity

Q: What about the minimal effective dose [1] of the same compound?
A: 6.4 to 12.8 mg/kg

Q: Which minimal effective dose [1] does the source give for `O=C(NC1CCN(Cc2ccccc2)CC1)c1ccccc1` [Example 30, 1-Benzyl-4-benzamidopiperidine] here?
A: 25.6 mg/kg

Q: Which hypotensive activity (blood pressure) does the source give for `O=C(NC1CCN(CCC=C(c2ccccc2)c2ccccc2)CC1)c1ccccc1` [Example 89, 4-(4-Benzamidopiperid-1-yl)-1,1-diphenylbut-l-ene] here?
A: hypotensive activity

Q: What about the minimal effective dose [1] of the same compound?
A: 6.4 to 12.8 mg/kg

Q: Which hypotensive activity (blood pressure) does the source give for `O=C(NC1CCN(CCc2ccc3ccccc3c2)CC1)C1CCCCC1` [Example 84] here?
A: hypotensive activity

Q: And the minimal effective dose [1]?
A: 6.4 to 12.8 mg/kg

Q: What does the source list for `O=C(CCCN1CCC(NC(=O)c2ccc(Cl)cc2)CC1)c1ccccc1` [Example 76, 4-(4-Chlorobenzamido)-1-(4-phenyl-4-oxobutyl)piperidine]?
A: hypotensive activity (blood pressure): hypotensive activity; minimal effective dose [1]: 6.4 to 12.8 mg/kg

Q: How did the hypotensive activity (blood pressure) turn out when `O=C(NC1CCN(CC(O)c2ccc3c(c2)CCCC3)CC1)c1ccccc1` (stereo not shown) [Example 57, 1-[2-(1,2,3,4-Tetrahydro-6-naphthyl)-2-hydroxyethyl]-4-benzamido-piperidine] was run?
A: hypotensive activity

Q: What about the minimal effective dose [1] of the same compound?
A: 1.6 to 3.2 mg/kg

Q: With `NC1CCN(CCCC(=O)c2ccccc2)CC1` [Example 72, 4-Amino-1-(4-phenyl-4-oxobutyl)piperidine] as the compound, how does the “α-blockade pA2” value (α-adrenoceptor) read?
A: 6.9

Q: With `O=C(CCCN1CCC(NC(=O)c2ccccc2)CC1)c1ccc(Br)cc1` [Example 71, 4-Benzamido-1-[4-(4-bromophenyl)-4-oxobutyl]piperidine] as the compound, how does the minimal effective dose [1] read?
A: 25.6 mg/kg

Q: With `COc1ccc(CCN2CCC(NC(=O)c3ccccc3)CC2)cc1OC` [Example 5, 1-[2-(3,4-Dimethoxyphenyl)ethyl]-4-benzamidopiperidine] as the compound, how does the minimal effective dose [1] read?
A: < 30 mg/kg

Q: With `O=C(NC1CCN(CCCC(O)c2ccccc2)CC1)c1ccccc1` (single isomer, unassigned; (+)) [Example 86, (+)-4-Benzamido-1-(4-phenyl-4-hydroxybutyl)piperidine] as the compound, how does the hypotensive activity (blood pressure) read?
A: hypotensive activity

Q: And the minimal effective dose [1]?
A: 1.6 to 3.2 mg/kg

Q: What does the source list for `O=C(NC1CCN(CCC2CCCCC2)CC1)c1ccccc1` [Example 1, 1-[2-(Cyclohexyl)ethyl]-4-benzamidopiperidine]?
A: hypotensive activity (blood pressure): good hypotensive activity; minimal effective dose [1]: 1.6 to 3.2 mg/kg

Q: For `O=C(NC1CCN(CCCC(O)c2ccc3ccccc3c2)CC1)c1ccccc1` (stereo not shown) [Example 83, 1-[4-(2'-Naphthyl)-4-hydroxybutyl]-4-benzamidpiperidine], which hypotensive activity (blood pressure) is on record?
A: hypotensive activity

Q: What about the minimal effective dose [1] of the same compound?
A: 1.6 to 3.2 mg/kg

Q: `O=C(CCCN1CCC(NC(=O)c2ccccc2)CC1)c1ccc2ccccc2c1` [Example 80, 1-[4-(2-Naphthyl)-4-oxobutyl]-4-benzamidopiperidine] was tested. Which hypotensive activity (blood pressure) did it give?
A: hypotensive activity

Q: What about the minimal effective dose [1] of the same compound?
A: 1.6 to 3.2 mg/kg

Q: What does the source list for `O=C(NC1CCN(CCCC(O)c2ccccc2)CC1)c1ccccc1` (stereo not shown) [Example 53, 4-Benzamido-1-(4-phenyl-4-hydroxybutyl)piperidine]?
A: hypotensive activity (blood pressure): hypotensive activity; minimal effective dose [1]: 6.4 to 12.8 mg/kg

Q: Which minimal effective dose [1] does the source give for `COc1ccc(C(=O)CCCN2CCC(NC(=O)c3ccccc3)CC2)cc1` [Example 77, 4-Benzamido-1-[4-(4-methoxyphenyl)-4-oxobutyl]piperidine] here?
A: 6.4 to 12.8 mg/kg

Q: With `Cc1cc2c(cc1C(O)CN1CCC(NC(=O)c3ccccc3)CC1)C(C)(C)CC(C)C2(C)C` (stereo not shown) [Example 67, 7-[2-(4-Benzamidopiperid-1-yl)-1-hydroxyethyl]-1,1,3,4,4,6-Hexamethyl-1,2,3,4-tetrahydronaphthalene] as the compound, how does the hypotensive activity (blood pressure) read?
A: hypotensive activity

Q: Which hypotensive activity (blood pressure) does the source give for `Cc1cc2c(cc1C(=O)CN1CCC(NC(=O)c3ccccc3)CC1)C(C)(C)CC(C)C2(C)C` (stereo not shown) [Example 66, 7-(4-Benzamidopiperidinoacetyl)-1,1,3,4,4,6-hexamethyl-1,2,3,4-tetrahydronaphthalene] here?
A: hypotensive activity

Q: And the minimal effective dose [1]?
A: 6.4 to 12.8 mg/kg

— US4029801A, “Pharmaceutical compositions and methods of treating hypertension” (priority 1970, dated 1977)
